According to article PMC7154665, “Triple‐Helix‐Stabilizing Effects in Collagen Model Peptides Containing PPII‐Helix‐Preorganized Diproline Modules” (Angewandte Chemie (International Ed. in English), 2020):

Experiments:
[1] = CD thermal denaturation of collagen model peptide triple helices (transition temperature); format: physicochemical; conditions: for T m (figure legends and text) / T m of the corresponding CMPs: CD denaturation at 225 nm; for T m (figure legends and text): PBS-buffer, 12 °C h-1 heating rate, * substitution-site altered, ** arginine-free peptides; for T m: triple-helix transition temperature, CD ellipticity at 225 nm, 60 µM peptide in PBS (10 mM Na2HPO4, 10 mM NaH2PO4, 150 mM NaCl, pH 7.0), 4 to 70 °C, heating rate 12 °C h-1, two-state fit, error ±1 °C; for T m of the corresponding CMPs: Table 2, CMP Ac‐(PPG)5‐PRG‐PPG‐[XY]G‐(PPG)3‐NH2, PBS, 12 °C h-1
Description: For all prepared model peptides, CD spectra were recorded in phosphate‐buffered saline (after incubation for […] at 4 °C). […] The curves were fitted to assess triple‐helical stability by the transition temperature (T m, ±1 °C error) in a standardized fashion (see Table 1 and the Supporting Information). Selected denaturation curves are depicted in Figure 4.
CD spectra and Thermal Denaturation Experiments
Experimental setup - Vacuum-dried peptides were dissolved in phosphate-buffered saline (10 mM Na2HPO4, 10 mM NaH2PO4,
150 mM NaCl, pH = 7.0) and the solutions (60 µM peptide) were incubated at 4 °C for at least 48 h for trimerization. CD
measurements were performed on a Jasco J-715 spectropolarimeter using a quartz cuvette (Hellma Analytics, 1 mm path length) and
To study thermal transitions the ellipticity at 225 nm was monitored while increasing the temperature from 4 to
70 °C at a rather slow heating rate of 12 °C h-1 which was controlled electronically (Jasco PTC-348 WI Peltier element). According to
the literature this heating rate still corresponds to non-equilibrium conditions, however, the generated data can be used for internal
Data interpretation - For Tm-determination a two-state-model was employed in which three peptide chains combine to a triple helix
assuming a previously reported mathematical model (vide infra).[7][8] Constants were set (c = 0.00006, R = 8.31) and auxiliary
variables (P, U, V, K) were used to describe the temperature dependence of the folded fraction F. Thermal transition curves were
fitted by optimizing the parameters θmin, θmax, ΔH, and Tm using the Generalized Reduced Gradient algorithm implemented in the
solver tool of MS Excel.[9]. An error of ±1.0 °C was estimated for the resulting Tm values by repeating denaturation experiments.

[2] = molecular target: T1, HSP47 (Canis lupus familiaris, UniProt A0A8I3N7V2); assay: HSP47 binding by biolayer interferometry (BLI); parameters: species or system canine; conditions: Table S7; BLI curve fitting; KD = koff/kon; errors by propagation of uncertainty; read-out: KD (with error)
T1 construct: coding for residues 36LSP…RDEL418; inferred from Ni-NTA purification with imidazole elution; made in house; host or cells: E. coli BL21 (DE3)
T1 sequence (A0A8I3N7V2 36-418): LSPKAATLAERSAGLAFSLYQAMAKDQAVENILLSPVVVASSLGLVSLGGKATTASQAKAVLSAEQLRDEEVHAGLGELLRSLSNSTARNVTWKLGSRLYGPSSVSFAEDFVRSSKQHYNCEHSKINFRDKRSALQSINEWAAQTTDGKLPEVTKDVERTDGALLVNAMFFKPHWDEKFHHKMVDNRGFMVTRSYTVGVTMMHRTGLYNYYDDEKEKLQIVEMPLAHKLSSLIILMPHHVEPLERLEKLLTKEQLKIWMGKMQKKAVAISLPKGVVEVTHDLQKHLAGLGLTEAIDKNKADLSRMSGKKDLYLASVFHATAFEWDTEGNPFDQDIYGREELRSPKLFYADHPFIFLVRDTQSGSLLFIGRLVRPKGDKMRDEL
Description: (1 picture or pasted object on this page, not shown here) […]

With “Ac‐(PPG)5‐PRG‐PPG‐HO‐ProM1G‐(PPG)3‐NH2 [Entry 5]” the “T m (figure legends and text)” value [1] was 43.0 °C and the T m [1] was 43.0 °C.
In the case of Ac‐(EtO)2‐ProM1‐OMe, the “T m (figure legends and text)” value [1] is reported as 44 °C and the “T m of the corresponding CMPs” value [1] is reported as 44.5 °C.
For Ac‐(EtO)2‐ProM2‐OMe, the “T m of the corresponding CMPs” value [1] was 38.9 °C and the ΔT m ([1]; with regard to the non‐functionalized system (ProM2 series)) was −6 °C.
For “Ac‐(PPG)3‐ProM1G‐PPG‐PRG‐(PPG)5‐NH2 [Entry 14]”, the T m [1] was 40.5 °C.
In the case of `COC(=O)[C@@H]1CC(O)CN1C(=O)[C@@H]1CCCN1C(C)=O` (stereo partly drawn) [ProHyp], the “T m (figure legends and text)” value [1] is reported as 49.8 °C and the “T m of the corresponding CMPs” value [1] is reported as 49.8 °C.
For “Ac-PPG-PPG-PPG-PPG-PPG-PRG-PPG-OPG-PPG-PPG-PPG-NH2 [HypPro]”, the “T m (figure legends and text)” value [1] was 44.0 °C.
In the case of “Ac-PPG-PPG-PPG-PPG-PPG-PPG-PPG-PPG-PPG-PPG-PPG-NH2 [ProPro**]”, the “T m (figure legends and text)” value [1] is reported as 45.9 °C.
For “Ac-PPG-PPG-PPG-PPG-PPG-PRG-PPG-OOG-PPG-PPG-PPG-NH2 [HypHyp]”, the “T m (figure legends and text)” value [1] was 46.9 °C.
With “Ac‐(PPG)5‐PRG‐PPG‐(MeO)2‐ProM2G‐(PPG)3‐NH2 [Entry 12]” the “T m (figure legends and text)” value [1] was 40.2 °C and the T m [1] was 40.2 °C.
With “Ac‐(PPG)5‐PRG‐PPG‐(EtO)2‐ProM1G‐(PPG)3‐NH2 [Entry 8]” the “T m (figure legends and text)” value [1] was 44.5 °C and the T m [1] was 44.5 °C.
With “Ac‐(PPG)5‐PRG‐PPG‐(EtO)2‐ProM2G‐(PPG)3‐NH2 [Entry 13]” the “T m (figure legends and text)” value [1] was 38.9 °C and the T m [1] was 38.9 °C.
With “Ac‐(PPG)5‐PRG‐PPG‐(HO)2‐ProM2G‐(PPG)3‐NH2 [Entry 11]” the “T m (figure legends and text)” value [1] was 37.9 °C and the T m [1] was 37.9 °C.
Work on “Ac‐(PPG)5‐PRG‐PPG‐ProM1G‐(PPG)3‐NH2 [Entry 3]” yielded a T m [1] of 39.3 °C.
With Ac‐ProM1‐OMe the “T m (figure legends and text)” value [1] was 39.3 °C, the “T m of the corresponding CMPs” value [1] was 39.3 °C and the ΔT m ([1]; in comparison to reference peptide Ac‐(PPG)5‐PRG‐(PPG)5‐NH2) was −6 °C.
For “Ac‐(PPG)5‐PRG‐PPG‐(MeO)2‐ProM1G‐(PPG)3‐NH2 [Entry 7]”, the “T m (figure legends and text)” value [1] was 43.6 °C and the T m [1] was 43.6 °C.
“Ac‐(PPG)5‐PRG‐PPG‐ProHypG‐(PPG)3‐NH2 [Entry 2]” gave a T m [1] of 49.8 °C.
`N=C(N)NCCC[C@H](NC(=O)[C@@H]1CCCN1C(=O)CNC(=O)[C@@H]1CCCN1C(=O)[C@@H]1CCCN1C(=O)CNC(=O)[C@@H]1CCCN1C(=O)[C@@H]1CCCN1C(=O)CNC(=O)[C@@H]1CCCN1C(=O)[C@@H]1CCCN1C(=O)CNC(=O)[C@@H]1CCCN1C(=O)[C@@H]1CCCN1C(=O)CNC(=O)[C@@H]1CCCN1C(=O)[C@@H]1CCCN1C(=O)CCC(=O)NCCOCCOCCNC(=O)CCCC[C@@H]1SC[C@@H]2NC(=O)N[C@@H]21)C(=O)NCC(=O)N1CCC[C@H]1C(=O)N1CCC[C@H]1C(=O)NCC(=O)N1CCC[C@H]1C(=O)N1CCC[C@H]1C(=O)NCC(=O)N1CCC[C@H]1C(=O)N1CCC[C@H]1C(=O)NCC(=O)N1CCC[C@H]1C(=O)N1CCC[C@H]1C(=O)NCC(=O)N1CCC[C@H]1C(=O)N1CCC[C@H]1C(=O)NCC(N)=O` [PP] gave a Kd [2] of 0.3703 ± 0.0018 µM.
For “Ac-PPG-PPG-PPG-PPG-PPG-PPG-PPG-[H2ProM2]G-PPG-PPG-PPG-NH2 [H2-ProM2**]”, the “T m (figure legends and text)” value [1] was 44.4 °C.
Compound “Ac‐(PPG)3‐H2‐ProM2G‐PPG‐PRG‐(PPG)5‐NH2 [Entry 15]” has a T m [1] of 44.6 °C.
